Test results: patent US20100009970A1, “COMPOSITIONS AND METHODS FOR TREATMENT OF VIRAL DISEASES” (Combinatorx (Singapore) Pte. Ltd., priority 2008, published 2010)
Counter-ions that a name gives are not always drawn.

Test system: Huh7 cells expressing a subgenomic RNA replicon of Con1 (genotype 1b) sequence origin
Experiment: microbe, parasite or virus in culture
Conditions: Hepatitis C virus; for IC50: Huh-7; for Emax: Huh-7, read-out: Max Effect@CC30 (inhibition)

SMILES | IC50 [µM] | Emax [%]
Nc1ccc(OCCCCCOc2ccc(N)cc2)cc1 [1,5-Bis(4-aminophenoxy)pentane, reference compound] | 1.7 | 
Oc1cccc2c(O)nccc12 [1,5-Isoquinolinediol, reference compound] | 25.9 | 
Nc1ccccc1OCCCCCOc1ccccc1N [2,2′-(Pentamethylenedioxy)dianiline, reference compound] | 0.27 | 
O=C1CC(O)(c2ccccc2)Oc2ccccc21 (stereo not shown) [2-Hydroxyflavanone, 2-hydroxyflavanone, reference compound] | 2.48 | 
C[C@@]1(O)[C@H](O)[C@@H](CO)O[C@H]1n1ccc(N)nc1=O [2′-C-Methylcytidine, 2′-C-methylcytidine, reference compound] | 1.63 | 
Nc1cccc(OCCCCCOc2cccc(N)c2)c1 [3,3′-(Pentamethylenedioxy)dianiline, reference compound] | 1.63 | 
CC(C)(C)C(=O)OCOP(=O)(COCCn1cnc2c(N)ncnc21)OCOC(=O)C(C)(C)C [Adefovir (e.g., dipivoxil), adefovir dipivoxil, reference compound] | 0.319 | 
Nc1nc[nH]n1 [Amitrole] | 14.6 | 
CCC(C)(C)c1ccc(CC(C)CN2C[C@@H](C)O[C@@H](C)C2)cc1 (stereo partly shown) [Amorolfine (e.g., hydrochloride), amorolfine, reference compound] | 1.62 | 
C[C@@]1(CO)[C@H](O)CC[C@@]2(C)[C@H]1CC[C@H]1C[C@@H]3C[C@@]12CC[C@]3(O)CO [Aphidicolin, aphidicolin, reference compound] | 1.71 | 
CCOC(=O)c1c(CSc2ccccc2)n(C)c2cc(Br)c(O)c(CN(C)C)c12 [Arbidol, arbidol, reference compound] | 12.2 | 
C[C@@H]1CC[C@H]2[C@@H](C)C(=O)O[C@@H]3O[C@]4(C)CC[C@@H]1[C@]32OO4 [Artemisinin, artemisinin, reference compound] | 4.45 | 
C[C@H]1[C@H](OC(=O)CCC(=O)O)O[C@@H]2O[C@@]3(C)CC[C@H]4[C@H](C)CC[C@@H]1[C@@]24OO3 [Artesunate, artesunate, reference compound] | 3.73 | 
CN1CCCC(n2nc(Cc3ccc(Cl)cc3)c3ccccc3c2=O)CC1 (stereo not shown) [Azelastine, azelastine, reference compound] | 6.22 | 
CCCCOc1cc(C(=O)OCCN(CC)CC)ccc1N [Benoxinate (e.g., hydrochloride), benoxinate, reference compound] | 3.02 | 
N=C(NCc1ccccc1)NC(=O)c1nc(Cl)c(N)nc1N [Benzamil (e.g., HCl), benzamil, reference compound] | 4.73 | 
CCOC(=O)c1ccc(N)cc1 [Benzocaine, reference compound] | 13.9 | 
CN(C)CCCOc1nn(Cc2ccccc2)c2ccccc12 [Benzydamine (e.g., hydrochloride), benzydamine, reference compound] | 9 | 
CC1=C(/C=C/C(C)=C/C=C/C(C)=C/C=C/C=C(C)/C=C/C=C(C)/C=C/C2=C(C)CCCC2(C)C)C(C)(C)CCC1 [Beta-Carotene] | 18.5 | 
c1ccc(-c2ccc(C(c3ccccc3)n3ccnc3)cc2)cc1 (stereo not shown) [Bifonazole, reference compound] | 6.15 | 
CC(C)(C)NC(=O)NC(C(=O)N1C[C@H]2[C@@H]([C@H]1C(=O)NC(CC1CCC1)C(=O)C(N)=O)C2(C)C)C(C)(C)C (stereo partly shown) [Boceprevir (SCH 503034), Boceprevir, reference compound] | 0.259 | 
CN(Cc1cc(Br)cc(Br)c1N)C1CCCCC1 [Bromhexine, reference compound] | 14.2 | 

SMILES | IC50 [µM] | Emax [%]
CC(C)C[C@H]1C(=O)N2CCC[C@H]2[C@]2(O)O[C@](NC(=O)[C@@H]3C=C4c5cccc6[nH]c(Br)c(c56)C[C@H]4N(C)C3)(C(C)C)C(=O)N12 [Bromocriptine (e.g., mesylate), bromocriptine, reference compound] | 3.38 | 
CCCC1O[C@@H]2C[C@H]3[C@@H]4CCC5=CC(=O)C=C[C@]5(C)[C@H]4[C@@H](O)C[C@]3(C)[C@]2(C(=O)CO)O1 (stereo partly shown) [Budesonide, budesonide, reference compound] | 15.7 | 
CCCCOc1ccc(CC(=O)NO)cc1 [Bufexamac, bufexamac, reference compound] | 8.29 | 
CC[C@@]1(O)C(=O)OCc2c1cc1n(c2=O)Cc2cc3ccccc3nc2-1 [Camptothecin, camptothecin, reference compound] | 0.026 | 
COc1cc(CNC(=O)CCCC/C=C/C(C)C)ccc1O [Capsaicin, reference compound] | 11.7 | 
CNC(=O)Oc1cccc2ccccc12 [Carbaryl] | 9.65 | 
CC1=C(O)C(=O)C=C2C1=CC=C1[C@@]2(C)CC[C@@]2(C)[C@@H]3C[C@](C)(C(=O)O)CC[C@]3(C)CC[C@]12C [Celastrol, reference compound] | 0.449 | 
COc1ccc2cc1Oc1ccc(cc1)C[C@H]1c3c(cc4c(c3Oc3cc5c(cc3OC)CCN(C)[C@@H]5C2)OCO4)CCN1C [Cepharanthine, reference compound] | 19.5 | 
C/C=C/C/C=C/CCC(=O)[C@H]1O[C@H]1C(N)=O [Cerulenin, reference compound] | 16.2 | 
CCN(CC)CCCC(C)Nc1ccnc2cc(Cl)ccc12 (stereo not shown) [Chloroquine (e.g., phosphate), Chloroquine, reference compound] | 4.78 | 
CN(C)CCOC(C)(c1ccccc1)c1ccc(Cl)cc1 (stereo not shown) [Chlorphenoxamine (e.g., hydrochloride), chlorphenoxamine, reference compound] | 16.2 | 
CN(C)CCCC1(c2ccc(F)cc2)OCc2cc(C#N)ccc21 (stereo not shown) [Citalopram (e.g., hydrobromide), Citalopram, reference compound] | 27.3 | 
Nc1nc(Cl)nc2c1ncn2[C@H]1C[C@H](O)[C@@H](CO)O1 [Cladribine, 2-chloro-2′-deoxyadenosine, reference compound] | 0.112 | 
CSc1ccc(Oc2ccccc2CN(C)C)cc1 [Compound 35, N,N-dimethyl(2-(4-(methylthio)phenoxy)phenyl)methanamine] |  | 48
COc1cccc(Oc2ccc(Br)cc2CN(C)C)c1 [Compound 38, (5-bromo-2-(3-methoxyphenoxy)phenyl)-N,N-dimethylmethanamine] |  | 42
CNCc1cc(S(N)(=O)=O)ccc1Oc1ccc(Br)cc1 [Compound 44, 4-(4-bromophenoxy)-3-((methylamino)methyl)benzenesulfonamide] |  | 32.1
COc1cc(/C=C/C(=O)CC(=O)/C=C/c2ccc(O)c(OC)c2)ccc1O [Curcumin, curcumin] | 8.68 | 
N=c1ccn2c(n1)O[C@H]1[C@H](O)[C@@H](CO)O[C@H]12 [Cyclocytidine (e.g., hydrochloride), Cyclocytidine, reference compound] | 0.183 | 
C[C@@H]1C[C@@H]([C@H](O)CC2CC(=O)NC(=O)C2)C(=O)[C@@H](C)C1 [Cycloheximide, reference compound] | 0.184 | 
Nc1ccn([C@@H]2O[C@H](CO)[C@@H](O)[C@@H]2O)c(=O)n1 [Cytarabine, reference compound] | 0.117 | 
C[C@]12CC[C@H](O)CC1=CC[C@@H]1[C@@H]2CC[C@]2(C)C(=O)CC[C@@H]12 [Dehydroepiandrosterone, reference compound] | 11.2 | 
